Measurements as given in ChEMBL document CHEMBL1153274, “Microwave-assisted synthesis of N-substituted cyclic imides and their evaluation for anticancer and anti-inflammatory activities” (2009).

What was measured:
Assay type in all cases: functional
Rattus norvegicus [1] = assay: Antiinflammatory activity against carrageenan-induced paw edema in albino rat at 50 mg/kg, po administered 30 mins before carrageenan challenge measured after 1 to 3 hrs
SW-620 = assay: Cytotoxicity against human SW620 cells after 48 hrs by SRB assay
HEp-2 = assay: Cytotoxicity against human Hep2 cells after 48 hrs by SRB assay
SK-N-SH = assay: Cytotoxicity against human SK-N-SH cells after 48 hrs by SRB assay
COLO 205 = assay: Cytotoxicity against human COLO205 cells after 48 hrs by SRB assay
Rattus norvegicus [2] = assay: Antiinflammatory activity against carrageenan-induced paw edema in albino rat at 25 mg/kg, po administered 30 mins before carrageenan challenge measured after 1 to 3 hrs
Rattus norvegicus [3] = assay: Antiinflammatory activity against carrageenan-induced paw edema in albino rat at 100 mg/kg, po administered 30 mins before carrageenan challenge measured after 1 to 3 hrs

Row | Structure (SMILES) | Activity (Rattus norvegicus [1]) [%] | growth inhibition (GI) (SW-620) [%] | growth inhibition (GI) (HEp-2) [%] | growth inhibition (GI) (SK-N-SH) [%] | growth inhibition (GI) (COLO 205) [%] | Activity (Rattus norvegicus [2]) [%] | Activity (Rattus norvegicus [3]) [%]
1 | O=C1c2nc[nH]c2C(=O)N1CCN1CCCCC1 | 0 | 17 | 18 | 22 | 10 |  | 
2 | O=C1Cc2ccccc2CC(=O)N1Cc1ccco1 | 22 | 17 | 17 | 11 | 10 |  | 
3 | O=C1c2nc[nH]c2C(=O)N1Cc1ccccn1 | 24 | 33 | 17 | 11 | 6 |  | 
4 | O=C1c2nc[nH]c2C(=O)N1Cc1ccncc1 | 21 | 43 | 26 | 1 | 3 |  | 
5 | O=C1Cc2ccccc2CC(=O)N1Cc1ccccn1 | 32 | 37 | 11 | 0 | 0 |  | 
6 | O=C1Cc2ccccc2CC(=O)N1Cc1cccnc1 | 40 | 22 | 6 | 0 | 0 | 19 | 67
7 | O=C1Cc2ccccc2CC(=O)N1Cc1cccs1 | 34 | 52 | 19 | 1 | 4 |  | 
8 | O=C1c2nccnc2C(=O)N1CCN1CCCCC1 | 16 | 9 | 12 | 10 | 2 |  | 
9 | O=C1Cc2ccccc2CC(=O)N1CCN1CCCCC1 | 21 | 45 | 15 | 0 | 0 |  | 
10 | O=C1c2nccnc2C(=O)N1Cc1ccccn1 | 29 | 33 | 16 | 11 | 6 |  | 
11 | O=C1c2ccncc2C(=O)N1CCN1CCCCC1 | 12 | 0 | 13 | 13 | 1 |  | 
12 | O=C1c2ccncc2C(=O)N1Cc1ccco1 | 24 | 45 | 8 | 0 | 0 |  | 
13 | O=C1c2ccncc2C(=O)N1Cc1cccs1 | 35 | 53 | 24 | 12 | 4 |  | 
14 | O=C1c2nccnc2C(=O)N1Cc1ccncc1 | 32 | 36 | 11 | 0 | 1 |  | 
15 | O=C1c2ccncc2C(=O)N1Cc1ccccn1 | 27 | 33 | 24 | 10 | 4 |  | 
16 | O=C1c2nccnc2C(=O)N1Cc1cccs1 | 31 | 46 | 16 | 12 | 7 |  | 
17 | O=C1c2nc[nH]c2C(=O)N1Cc1cccs1 | 32 | 23 | 15 | 2 | 3 |  | 
18 | O=C1c2nccnc2C(=O)N1Cc1ccco1 | 0 | 12 | 11 | 15 | 7 |  | 
19 | O=C1c2ccncc2C(=O)N1Cc1ccncc1 | 33 | 20 | 12 | 9 | 12 |  | 
20 | O=c1[nH]cc(F)c(=O)[nH]1 [FLUOROURACIL] |  | 44 | 40 | 56 | 25 |  | 
21 | CO[C@@]12[C@H](COC(N)=O)C3=C(C(=O)C(C)=C(N)C3=O)N1C[C@@H]1N[C@@H]12 [MITOMYCIN] |  | 29 | 60 | 85 | 41 |  | 
22 | CCCCC1C(=O)N(c2ccccc2)N(c2ccccc2)C1=O [PHENYLBUTAZONE] | 37 |  |  |  |  | 17 | 63
